US7317018B2, “Anti-inflammatory medicament” (Medestea Internazionale S.p.A., priority 2000, dated 2008)

Experiments:
Type in all cases: in vivo
noninflamed rat paws = test: Paw pressure test (nociceptive threshold) in noninflamed rat paws
Description: (§1) Male Fischer inbred rats (Charles River Italy, Calco, Lecco, Italy) weighing about 250 g were used. Rats, under brief isoflurane anaesthesia received an intraplantar injection of Freund's complete adjuvant (FCA) (0.15 ml) into the right hind paw. This injection induced a unilateral inflammation (from 3 h until 24-48 h following injection) evidenced by increase in paw volume, hyperthermia and hyperalgesia. Hyperalgesia was assessed by an algesyometric test, using an analgesyometer (Ugo Basile, Comerio, Italy) to determine the paw pressure threshold, expressed in grams, namely the pressure required to elicit paw withdrawal, which indicates the nociceptive threshold value. 6 to 8 rats were used for each test. During these trials, animals were treated according to the “standard ethical guidelines” (NIH, 1985).
Dose/effect curves in noninflamed paws were in fact superimposable (until 120′ after oATP administration) using different concentrations of the molecule. In order to ascertain whether oATP analgesic effect was somewhat related to the activation of inflammatory cells able to produce endogenous β-endorphins, some rats were intravenously injected with fucoidin (10 mg/kg). Fucoidin in fact inhibits leukocyte diapedesis and their accumulation at the inflammation site. Pre-treatment with fucoidin was carried out in both paws, 30′ before FCA injection in one of the rat paws. Pain pressure threshold (PPT) was measured in both noninflamed and inflamed paws, before and after oATP injection (224 μm).

[1] = system: ATP content in paw subcutaneous tissue; test: ATP content of rat paw subcutaneous tissue, luminescence method; conditions: for ATP levels: 6 and 12 h following intraplantar oATP (35 μM), FIG. 3
Description: ATP content was assessed in oATP treated rat paws and controlateral untreated ones. Paw subcutaneous tissues were removed from both inflamed and noninflamed paws and rapidly frozen in liquid nitrogen. The frozen tissue samples were weighed, homogenised in phosphate buffer, then treated with K2CO3 and neutralised, finally centrifuged. The supernatant was used for ATP assay, following the luminescence method. We determined in a separate group of rats the modifications in ATP content induced in the plantar tissue by the inflammatory process and/or by oATP treatment. At established times, paw subcutaneous tissues were removed and rapidly frozen in liquid nitrogen, with the aim of blocking any metabolic activity. The frozen tissue was homogenized with a polytron (Kinematica GmbH, Luzern, Switzerland) in ice-cold 6% (w/v) HClO4 to extract nucleotides. The homogenate was centrifuged and the supernatant was used for ATP determination, following the procedure previously described (Marni et al., Transplantation (1988), 46: 830-835). ATP assay was performed by luminescence method (Ferrero et al., Res Commun Chem Path Pharmac 1984; 45: 55-67). We measured ATP levels, in inflamed (by 24 h FCA treatment) and noninflamed paws treated with oATP, at 6 and 12 h following oATP administration, and in controlateral untreated paws. […] ATP content, at 6 and 12 h following intraplantar oATP (35 μM) injection in rat paws: inflamed (by 24 FCA administration) (filled bars), inflamed-oATP treated (hatched bars), noninflamed (open bars), noninflamed-oATP-treated (horizontal line bars). *p<0.005 compared with inflamed untreated paws, Wilcoxon test. Data are expressed as means±S.E.M. of 7 experiments.

[2] = system: rat hind paw inflamed by Freund's complete adjuvant (FCA); test: Paw pressure test (nociceptive threshold) and inflammatory signs in rat hind paw inflamed by intraplantar Freund's complete adjuvant (FCA)
Description: As experimental model, a unilateral inflammation in rat hind paw, after intraplantar injection of Freund's complete adjuvant (FCA), has been used. The controlateral paw of treated animals, as well as that of untreated animals, were used as controls. Inflammation induced by FCA was evidenced, from 3 h until 24-48 h following injection, by increase in paw volume, hyperthermia and hyperalgesia. The latter was evaluated by an algesyometric test (paw pressure test) capable of evaluating the nociceptive threshold. […] Different doses of oATP always induced a significant, dose-dependent analgesic effect, lasting approximately 12-24 hours, with an effect peak already one hour after the administration.
as §1
Rat inflamed paw received, 24 hrs after FCA injection, intraplantar injection of different doses of oATP (56 to 336 μM), considering time 0 the moment of oATP injection.
The effect of the maximal oATP dose used was tested in a further set of experiments, for more prolonged times, on rat paws in which the inflammatory process had been induced 48 hrs before (table 2). […]

Question: What does the source list for `Nc1ncnc2c1ncn2[C@@H](C=O)O[C@@H](C=O)COP(=O)(O)OP(=O)(O)OP(=O)(O)O` [oATP, adenosine-5′-triphosphate-2′,3′-dialdehyde]?
Answer: effect on nociceptive threshold (noninflamed rat paws; already at the lowest oATP concentration (56 μM), dose/effect curves superimposable until 120′): effective in increasing nociceptive threshold, for a short time; pain pressure threshold (PPT) (noninflamed rat paws; fucoidin 10 mg/kg i.v. pre-treatment, oATP injection 224 μm, FIG. 1): did not significantly change PPT values; ATP levels ([1]; inflamed tissues (24 h FCA), p<0.005 vs inflamed untreated paws): significantly reduced; ATP levels ([1]; noninflamed tissues): did not significantly change ATP levels; ATP content of paw homogenate ([1]; oATP treated paws, untreated 1050±90, mean±S.E.M. of 7 experiments): 320±22 nmoles/g fresh tissue; pain pressure threshold (PPT) ([2]; inflamed paws, fucoidin 10 mg/kg i.v. pre-treatment 30′ before FCA, oATP injection 224 μm, FIG. 1): restored PPT levels; duration of analgesic effect ([2]; intraplantar injection, different doses of oATP): 12 to 24 h; dose dependence of analgesic effect ([2]; intraplantar oATP 56 to 336 μM): dose-dependent effect; analgesic efficacy compared with diclofenac ([2]; local treatment 3 hours after FCA, oATP 336 μM vs diclofenac 15 mg, FIG. 2): significantly higher than that of diclofenac; nociceptive threshold or paw pressure threshold ([2]; oATP 56 μM intraplantar, 24 hrs after FCA, inflamed paw, 30′): 120 ± 2.1 g; nociceptive threshold or paw pressure threshold ([2]; oATP 56 μM intraplantar, 24 hrs after FCA, inflamed paw, 60′): 190 ± 2.3 g; nociceptive threshold or paw pressure threshold ([2]; oATP 56 μM intraplantar, 24 hrs after FCA, inflamed paw, 90′): 85 ± 2.5 g; nociceptive threshold or paw pressure threshold ([2]; oATP 56 μM intraplantar, 24 hrs after FCA, inflamed paw, 120′): 75 ± 1.8 g; nociceptive threshold or paw pressure threshold ([2]; oATP 56 μM intraplantar, 24 hrs after FCA, inflamed paw, 240′): 75 ± 2.6 g; nociceptive threshold or paw pressure threshold ([2]; oATP 56 μM intraplantar, 24 hrs after FCA, inflamed paw, time 0′ (untreated inflamed paw, baseline)): 60 ± 1.6 g; nociceptive threshold or paw pressure threshold ([2]; oATP 112 μM intraplantar, 24 hrs after FCA, inflamed paw, 30′): 140 ± 3.5 g; nociceptive threshold or paw pressure threshold ([2]; oATP 112 μM intraplantar, 24 hrs after FCA, inflamed paw, 60′): 180 ± 4.2 g; nociceptive threshold or paw pressure threshold ([2]; oATP 112 μM intraplantar, 24 hrs after FCA, inflamed paw, 90′): 150 ± 3.8 g; nociceptive threshold or paw pressure threshold ([2]; oATP 112 μM intraplantar, 24 hrs after FCA, inflamed paw, 120′): 100 ± 3.0 g; nociceptive threshold or paw pressure threshold ([2]; oATP 112 μM intraplantar, 24 hrs after FCA, inflamed paw, 240′): 105 ± 4.3 g; nociceptive threshold or paw pressure threshold ([2]; oATP 112 μM intraplantar, 24 hrs after FCA, inflamed paw, time 0′ (untreated inflamed paw, baseline)): 65 ± 2.0 g; nociceptive threshold or paw pressure threshold ([2]; oATP 224 μM intraplantar, 24 hrs after FCA, inflamed paw, 30′): 350 ± 54 g; nociceptive threshold or paw pressure threshold ([2]; oATP 224 μM intraplantar, 24 hrs after FCA, inflamed paw, 60′): 400 ± 10.3 g; nociceptive threshold or paw pressure threshold ([2]; oATP 224 μM intraplantar, 24 hrs after FCA, inflamed paw, 90′): 300 ± 11.2 g; nociceptive threshold or paw pressure threshold ([2]; oATP 224 μM intraplantar, 24 hrs after FCA, inflamed paw, 120′): 185 ± 7.1 g; nociceptive threshold or paw pressure threshold ([2]; oATP 224 μM intraplantar, 24 hrs after FCA, inflamed paw, 240′): 180 ± 8.9 g; nociceptive threshold or paw pressure threshold ([2]; oATP 224 μM intraplantar, 24 hrs after FCA, inflamed paw, time 0′ (untreated inflamed paw, baseline)): 50 ± 1.5 g; nociceptive threshold or paw pressure threshold ([2]; oATP 336 μM intraplantar, 24 hrs after FCA, inflamed paw, 30′): 300 ± 3.4 g; nociceptive threshold or paw pressure threshold ([2]; oATP 336 μM intraplantar, 24 hrs after FCA, inflamed paw, 60′, 750 = cut off): => 750 *1 g; nociceptive threshold or paw pressure threshold ([2]; oATP 336 μM intraplantar, 24 hrs after FCA, inflamed paw, 90′, 750 = cut off): => 750 *2 g; nociceptive threshold or paw pressure threshold ([2]; oATP 336 μM intraplantar, 24 hrs after FCA, inflamed paw, 120′): 600 ± 20.8 g; nociceptive threshold or paw pressure threshold ([2]; oATP 336 μM intraplantar, 24 hrs after FCA, inflamed paw, 240′): 550 ± 18.4 g; nociceptive threshold or paw pressure threshold ([2]; oATP 336 μM intraplantar, 24 hrs after FCA, inflamed paw, time 0′ (untreated inflamed paw, baseline)): 60 ± 1.9 g; nociceptive threshold or paw pressure threshold ([2]; oATP 336 μM, inflammatory process induced 48 hrs before, 30′): 210 ± 10.7 g; nociceptive threshold or paw pressure threshold ([2]; oATP 336 μM, inflammatory process induced 48 hrs before, 60′): 360 ± 25.8 g; nociceptive threshold or paw pressure threshold ([2]; oATP 336 μM, inflammatory process induced 48 hrs before, 90′): 395 ± 30.2 g; nociceptive threshold or paw pressure threshold ([2]; oATP 336 μM, inflammatory process induced 48 hrs before, 120′): 450 ± 38.1 g; nociceptive threshold or paw pressure threshold ([2]; oATP 336 μM, inflammatory process induced 48 hrs before, 180′): 550 ± 45.9 g; nociceptive threshold or paw pressure threshold ([2]; oATP 336 μM, inflammatory process induced 48 hrs before, 240′): 690 ± 56.6 g; nociceptive threshold or paw pressure threshold ([2]; oATP 336 μM, inflammatory process induced 48 hrs before, 12 hours): 400 ± 29.7 g; nociceptive threshold or paw pressure threshold ([2]; oATP 336 μM, inflammatory process induced 48 hrs before, 24 hours): 210 ± 7.2 g; nociceptive threshold or paw pressure threshold ([2]; oATP 336 μM, inflammatory process induced 48 hrs before, 26 hours): 190 ± 3.3 g; nociceptive threshold or paw pressure threshold ([2]; oATP 336 μM, inflammatory process induced 48 hrs before, time 0′ (baseline)): 55 ± 2.0 g; inflammatory signs (swelling, hyperthermia) ([2]; oATP treated paws compared with untreated paws): reduction of inflammatory signs

Question: `Nc1ncnc2c1ncn2[C@@H]1O[C@H](COP(=O)(O)OP(=O)(O)OP(=O)(O)O)[C@@H](O)[C@H]1O` [ATP, reference compound] was tested. Which nociceptive threshold (noninflamed rat paws; 240′ after intraplantar injection of ATP (0.9 mmoles)) did it give?
Answer: 25±3.0

Question: And the nociceptive threshold (noninflamed rat paws; before intraplantar injection of ATP (0.9 mmoles))?
Answer: 120±3.2

Question: What about the nociceptive threshold ([2]; inflamed paws, after intraplantar injection of ATP (0.9 mmoles)) of the same compound?
Answer: 50±4.1

Question: And the nociceptive threshold ([2]; inflamed paws, before intraplantar injection of ATP (0.9 mmoles))?
Answer: 65±4.2
